Entries after “also recorded” stand apart in the source; their conditions may differ. Read-outs that look alike come from different tables or passages of the source. Values belong to the molecule of their own block, whether it stands above or below them.
Key:
[1] = target: T1, muscarinic acetylcholine receptor M2 (Homo sapiens, UniProt P08172); test: NIMH PDSP GPCR receptor binding screen, M2
T1 sequence (P08172 1-466): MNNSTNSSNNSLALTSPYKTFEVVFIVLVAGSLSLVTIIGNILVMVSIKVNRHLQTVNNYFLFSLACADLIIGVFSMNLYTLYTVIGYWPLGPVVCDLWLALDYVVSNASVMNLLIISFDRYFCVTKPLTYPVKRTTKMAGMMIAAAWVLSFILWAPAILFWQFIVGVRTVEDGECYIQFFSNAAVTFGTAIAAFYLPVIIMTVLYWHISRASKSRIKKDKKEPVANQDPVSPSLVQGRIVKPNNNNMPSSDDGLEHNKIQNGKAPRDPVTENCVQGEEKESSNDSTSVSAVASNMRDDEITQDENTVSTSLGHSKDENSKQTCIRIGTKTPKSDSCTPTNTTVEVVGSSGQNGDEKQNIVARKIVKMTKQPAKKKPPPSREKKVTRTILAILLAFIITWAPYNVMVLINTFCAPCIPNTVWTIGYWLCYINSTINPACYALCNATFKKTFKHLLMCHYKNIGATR

OXTR [2] = conditions: ref Pitt et al., 2004, cited from earlier work
[3] = target: T2, muscarinic acetylcholine receptor M4 (Homo sapiens, UniProt P08173); test: NIMH PDSP GPCR receptor binding screen, M4
T2 sequence (P08173 1-479): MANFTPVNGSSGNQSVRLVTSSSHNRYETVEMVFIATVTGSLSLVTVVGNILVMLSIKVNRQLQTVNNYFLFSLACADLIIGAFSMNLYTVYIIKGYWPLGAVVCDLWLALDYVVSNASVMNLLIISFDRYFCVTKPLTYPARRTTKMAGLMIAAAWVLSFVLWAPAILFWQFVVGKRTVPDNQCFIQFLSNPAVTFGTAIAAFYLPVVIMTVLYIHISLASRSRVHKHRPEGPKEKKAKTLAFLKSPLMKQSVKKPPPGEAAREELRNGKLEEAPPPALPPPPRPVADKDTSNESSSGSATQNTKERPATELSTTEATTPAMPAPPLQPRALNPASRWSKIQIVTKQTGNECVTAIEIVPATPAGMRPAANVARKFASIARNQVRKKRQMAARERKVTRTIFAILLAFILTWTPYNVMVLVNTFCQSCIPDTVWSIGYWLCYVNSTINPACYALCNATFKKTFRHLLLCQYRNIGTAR

BALB/cByJ mice [4] = test: Marble-burying assay, BALB/cByJ; assay type: in vivo, mouse; conditions: for digging responses in marble-burying assay, oxytocin metabolites: acute IP, Supplemental Fig. 3B, C
[5] = target: T3, OXTR (β-arrestin recruitment) (Homo sapiens, UniProt P30559); test: PathHunter eXpress β-Arrestin GPCR Kit, enzyme fragment complementation assay; assay type: cell-based
T3 sequence (P30559 1-389): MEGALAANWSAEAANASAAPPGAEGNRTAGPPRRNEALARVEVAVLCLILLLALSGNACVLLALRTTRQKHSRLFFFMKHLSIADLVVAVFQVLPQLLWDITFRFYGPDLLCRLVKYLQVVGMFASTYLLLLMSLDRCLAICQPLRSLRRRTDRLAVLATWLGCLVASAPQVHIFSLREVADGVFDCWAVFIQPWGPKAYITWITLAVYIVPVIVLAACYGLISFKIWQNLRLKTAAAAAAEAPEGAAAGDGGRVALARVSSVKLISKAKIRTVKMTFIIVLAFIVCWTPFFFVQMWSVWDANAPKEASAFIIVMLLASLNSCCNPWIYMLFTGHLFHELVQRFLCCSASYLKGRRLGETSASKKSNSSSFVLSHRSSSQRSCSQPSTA

[6] = target: Avpr1a vasopressin receptor; conditions: ref Frantz et al., 2010, cited from earlier work
[7] = target: muscarinic acetylcholine receptor M3 (Homo sapiens, UniProt P20309); test: NIMH PDSP GPCR receptor binding screen, M3
[8] = system: human Avpr1a vasopressin receptor; test: Calcium mobilization assay, CHO-V1a; assay type: cell-based; conditions: Supplemental Fig. 1
wild-type CHO cells = test: Calcium response in wild-type CHO cells; assay type: cell-based; conditions: Supplemental Fig. 2
[9] = target: T4, human Avpr1b vasopressin receptor (Homo sapiens, UniProt P47901); test: Calcium mobilization assay, CHO-V1b; assay type: cell-based
T4 sequence (P47901 1-424): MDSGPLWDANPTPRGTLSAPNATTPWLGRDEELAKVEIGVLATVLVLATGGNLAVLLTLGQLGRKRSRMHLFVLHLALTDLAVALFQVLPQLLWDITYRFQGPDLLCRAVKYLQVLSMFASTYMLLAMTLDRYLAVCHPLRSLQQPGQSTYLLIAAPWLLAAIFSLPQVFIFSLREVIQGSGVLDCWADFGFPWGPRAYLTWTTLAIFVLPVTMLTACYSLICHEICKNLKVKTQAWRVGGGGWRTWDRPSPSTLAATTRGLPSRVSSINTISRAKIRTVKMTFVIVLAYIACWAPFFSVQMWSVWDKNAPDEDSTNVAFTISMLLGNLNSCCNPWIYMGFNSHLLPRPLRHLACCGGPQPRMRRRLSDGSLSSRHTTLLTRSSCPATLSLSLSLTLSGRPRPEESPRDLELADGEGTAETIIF

OXTR [10] = conditions: ref Pitt et al., 2004, cited from earlier work; remark: listed apart in the source
other human receptors = test: NIMH PDSP GPCR receptor binding screen, other receptors; conditions: complete set of GPCRs available through NIMH PDSP
[11] = target: T5, muscarinic acetylcholine receptor M5 (Homo sapiens, UniProt P08912); test: NIMH PDSP GPCR receptor binding screen, M5
T5 sequence (P08912 1-532): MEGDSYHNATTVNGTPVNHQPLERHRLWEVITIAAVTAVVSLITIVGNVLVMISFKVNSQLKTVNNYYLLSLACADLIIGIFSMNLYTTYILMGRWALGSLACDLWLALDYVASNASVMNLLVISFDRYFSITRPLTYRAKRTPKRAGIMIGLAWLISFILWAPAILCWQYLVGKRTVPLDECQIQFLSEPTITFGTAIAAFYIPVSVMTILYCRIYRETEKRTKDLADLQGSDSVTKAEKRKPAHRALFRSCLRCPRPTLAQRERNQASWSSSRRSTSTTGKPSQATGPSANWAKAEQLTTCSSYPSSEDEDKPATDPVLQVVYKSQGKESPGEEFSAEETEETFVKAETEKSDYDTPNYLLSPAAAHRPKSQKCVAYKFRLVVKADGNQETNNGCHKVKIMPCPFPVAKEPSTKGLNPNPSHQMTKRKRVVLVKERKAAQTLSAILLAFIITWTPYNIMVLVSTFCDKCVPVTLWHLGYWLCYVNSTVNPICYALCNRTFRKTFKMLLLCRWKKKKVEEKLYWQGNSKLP

[12] = target: T6, human oxytocin receptor (OXTR) (Homo sapiens, UniProt P30559); test: Fluorescence-based intracellular calcium mobilization assay; assay type: cell-based
T6 sequence (P30559 1-389): T3 sequence (P30559 1-389)

BALB/cByJ mice [13] = test: Three-chamber social choice test after subchronic regimen; assay type: in vivo, mouse
[14] = system: human Avpr2 vasopressin receptor; test: Calcium mobilization assay, CHO-V2; assay type: cell-based; conditions: Supplemental Fig. 1
[15] = target: T3, OXTR (β-arrestin recruitment); assay type: cell-based
human OXTR = target: T7, human OXTR (Homo sapiens, UniProt P30559); test: IP3 accumulation assay; assay type: cell-based
T7 sequence (P30559 1-389): T3 sequence (P30559 1-389)

rodents = conditions: ref Ring and colleagues 2006, 2010; cited from earlier work
rats [16] = conditions: ref de Wied et al., 1987; cited from earlier work
BALB/cByJ mice [17] = test: Open field test for activity and exploration; assay type: in vivo, mouse
rats [18] = conditions: dependent on dose; ref Popik et al., 1996; cited from earlier work

muscarinic acetylcholine receptor M3, sequence (P20309 whole entry): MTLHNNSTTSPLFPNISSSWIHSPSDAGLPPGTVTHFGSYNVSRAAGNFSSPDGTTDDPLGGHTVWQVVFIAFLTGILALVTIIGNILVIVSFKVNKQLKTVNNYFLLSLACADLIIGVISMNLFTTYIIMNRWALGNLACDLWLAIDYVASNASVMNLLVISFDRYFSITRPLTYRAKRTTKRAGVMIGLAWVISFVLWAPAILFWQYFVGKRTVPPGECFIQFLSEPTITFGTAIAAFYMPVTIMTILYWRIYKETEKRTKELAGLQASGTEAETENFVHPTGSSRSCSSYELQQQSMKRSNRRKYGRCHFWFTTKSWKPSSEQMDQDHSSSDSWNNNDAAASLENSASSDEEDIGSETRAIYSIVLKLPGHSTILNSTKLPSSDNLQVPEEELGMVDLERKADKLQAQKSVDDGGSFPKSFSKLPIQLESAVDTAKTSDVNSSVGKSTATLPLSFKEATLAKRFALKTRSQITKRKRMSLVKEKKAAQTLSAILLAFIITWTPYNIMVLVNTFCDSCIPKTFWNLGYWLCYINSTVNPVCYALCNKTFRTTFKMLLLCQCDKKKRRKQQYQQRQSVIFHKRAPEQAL

Ki [1]: > 1000 nM
Ki [3]: > 1000 nM
EC50 [5]: 480 nM
Efficacy (% OXT Response), DiscoveRx Express β-Arrestin ([5]; oxytocin response as 100%, run as single points only): 48%
Ki [7]: > 1000 nM
activation of human Avpr1a ([8]; CHO-V1a): did not activate the human Avpr1a
EC50 [9]: 4300 ± 70 nM
efficacy at human Avpr1b ([9]; compared to vasopressin): 74 ± 2%
Ki [11]: > 1000 nM
Efficacy (% OXT Response), FLIPR TETRA Ca2+ Release ([12]; Table 1, oxytocin response as 100%): 102%
EC50 [15]: 310 ± 260 nM
Efficacy (% OXT Response), DiscoveRx β-Arrestin ([15]; oxytocin response as 100%): 51 ± 6%
EC50 (human OXTR): 890 ± 90 nM
Emax (human OXTR; read-out: maximum efficacy, IP3 accumulation): 67 ± 4%
Molecule: Cc1cc(C(=O)N2Cc3cnn(C)c3Nc3ccccc32)ccc1CNC(=O)N1CCC[C@H]1C(=S)N1CCCN(C)CC1 [TC-OT-39, (2S)-N-[[4-[(4,10-Dihydro-1-methylpyrazolo[3,4-b][1,5]benzodiazepin-5(1H)-yl)carbonyl]-2-methylphenyl]methyl]-2-[(hexahydro-4-methyl-1H-1,4-diazepin-1-yl)thioxomethyl]-1-pyrrolidinecarboxamide]
EC50 (OXTR [2]; read-out: EC50, OXTR IP3 accumulation): 667 nM
agonist character, OXTR IP3 accumulation (OXTR [2]): partial agonist
marble burying, BALB/cByJ, 50 mg/kg (BALB/cByJ mice [4]; TC-OT-39 50 mg/kg IP, 50 min before test, F(1,14)=6.18, p=0.0261): comparable decreases in marble burying
sedative-like effects, 75 mg/kg (BALB/cByJ mice [4]; TC-OT-39 75 mg/kg IP, acute, not further tested): overt sedative-like effects
agonist character for β-arrestin recruitment ([5]; enzyme fragment complementation assay, CHO cells): reduced efficacy for β-arrestin recruitment; also recorded: only a partial agonist of β-arrestin recruitment
Ki ([6]; read-out: KI at Avpr1a, antagonist): 330 nM
character at Avpr1a [6]: antagonist of the Avpr1a vasopressin receptor
inverse agonism at Avpr1a [8]: appears to be an inverse agonist at Avpr1a
response of wild-type CHO cells (wild-type CHO cells): did not induce any response
EC50 (OXTR [10]; read-out: EC50, OXTR gene reporter assay): 33 nM
agonist character, OXTR gene reporter assay (OXTR [10]): full agonist
binding to other human receptors (other human receptors): no significant binding to other human receptors
agonist character at human OXTR ([12]; calcium mobilization / Gq signaling): moderately potent full agonist at the human OXTR; also recorded: efficacy comparable to that of oxytocin for Gq signaling
emergence of sociability at 14 days, TC-OT-39 (BALB/cByJ mice [13]; 30 and 50 mg/kg IP, subchronic, 14 days after final injection): no evidence for the emergence of increased sociability at the 14-day time point
activation of human Avpr2 [14]: did not activate the human Avpr1a or Avpr2 receptors

Molecule: Cc1cc(C(=O)N2Cc3cnn(C)c3Nc3ccccc32)ccc1CNC(=O)N1CCN(Cc2cc(O)cc(O)c2)CC1 [WAY-267464]
anxiolytic-like effects, rodent assays (rodents): comparable anxiolytic-like effects in rodent assays

Molecule: Asn-Cyt-Pro-Leu-Gly-NH2 [OT(5-9)]
digging responses in marble-burying assay, oxytocin metabolites (BALB/cByJ mice [4]; 50 min before test): neither OT(4-9) nor OT(5-9) altered digging responses in the marble-burying assay
potency on avoidance learning relative to oxytocin (rats [16]): greater potency than oxytocin itself on specific aspects of avoidance learning in rats
sociability, OT(5-9) 1 mg/kg (BALB/cByJ mice [13]; 1 mg/kg IP, subchronic, Supplemental Fig. 4D, E): failed to reverse social deficits
sociability, OT(5-9) 2.0 mg/kg (BALB/cByJ mice [13]; 2.0 mg/kg IP, subchronic, Supplemental Fig. 5): failed to reveal prosocial efficacy

Molecule: pGlu-Asn-Cyt-Pro-Leu-Gly-NH2 [OT(4-9)]
digging responses in marble-burying assay, oxytocin metabolites (BALB/cByJ mice [4]; 50 min before test): neither OT(4-9) nor OT(5-9) altered digging responses in the marble-burying assay
potency on avoidance learning relative to oxytocin (rats [16]): greater potency than oxytocin itself on specific aspects of avoidance learning in rats
activity or exploration in open field, OT(4-9) (BALB/cByJ mice [17]; OT(4-9) 2.0 mg/kg IP immediately before 2-hr test, versus vehicle, n=9): no significant effects on activity or exploration in the open field
anxiolytic effects, acute OT(4-9) (BALB/cByJ mice [17]; acute, marble-burying assay and open field tests): lacked anxiolytic effects in the marble-burying assay and open field tests
social recognition (rats [18]): oxytocin-like effects on social recognition in rats, dependent on dose
entries, OT(4-9) 1.0 mg/kg (BALB/cByJ mice [13]; 1.0 mg/kg IP, subchronic, n=8): without changing entries during the test
proximity to stranger mouse, OT(4-9) 1.0 mg/kg (BALB/cByJ mice [13]; 1.0 mg/kg IP, subchronic, n=8, main effect of side F(1,14)=6.84, p=0.0204): significant social preference for proximity to the stranger mouse
time in side with stranger mouse, OT(4-9) 2.0 mg/kg, 24 hr and 12 days (BALB/cByJ mice [13]; 2.0 mg/kg IP, subchronic, 24-hr test F(1,21)=7.3, p=0.0133, 12-day test F(1,21)=4.85, p=0.039, n=8): significant preference for spending more time in the side with the stranger mouse at both time points
proximity to stranger mouse, OT(4-9) 2.0 mg/kg, 12 days (BALB/cByJ mice [13]; 2.0 mg/kg IP, subchronic, 12 days, F(1,21)=7.02, p=0.015, n=8): significant preference for proximity to the stranger mouse 12 days following the final injection
prosocial efficacy compared with oxytocin (BALB/cByJ mice [13]; OT(4-9) 2.0 mg/kg vs oxytocin 1.0 mg/kg, subchronic): prosocial efficacy similar to oxytocin
dose dependence of sociability, OT(4-9) (BALB/cByJ mice [13]; subchronic IP): only the higher doses (1.0 and 2.0 mg/kg) leading to increased sociability
entries during 3-chamber test (discussion) (BALB/cByJ mice [13]; subchronic IP): neither oxytocin nor OT(4-9) led to alterations in entries during the 3-chamber test

Source: paper PMC7384330 (Neuropharmacology, 2018)
